We go through six compounds from PubChem BioAssay AID1398 (The Scripps Research Institute Molecular Screening Center, 2008).

The target of the assay is Signal transducer and activator of transcription 3 (Homo sapiens) (UniProt P40763). Nature of the assay: STAT3 activation reporter response, dose response, cell-based (AID 1398).

The term IC50 denotes the point on the concentration scale where inhibition reaches its midpoint.

Activity calls are given as the source filed them. The rule behind the calls is not given here.

Regarding `COC(=O)c1sccc1NC(=O)c1ccc(Br)s1`, the IC50 was > 18.6 µM (inactive).

With `CN1C(=O)/C(=C\c2cc(Br)cs2)c2ccccc21`, the IC50 was 0.635 µM.

Regarding `CC(OC(=O)c1cccnc1SCc1cc(=O)n2ccccc2n1)c1ccccn1` (stereo unspecified), the IC50 is > 6.19 µM (inactive).

`NNc1ncnc2sc3c(c12)CCC3`: the IC50 was > 55.7 µM (inactive).

As to `CC(C)CC1c2[nH]c3ccccc3c2CCN1C(=O)CCC(=O)N(C)C` (stereo unspecified), the IC50 is > 6.19 µM (inactive).

With `COc1cc(NC(=O)c2cc(-c3ccco3)on2)c(OC)cc1Cl`, the half-maximal inhibitory concentration (IC50) was 1.71 µM.
